Data taken from PMC9029893 (International Journal of Molecular Sciences, 2022).

Legend:
HUVEC cells = assay: WST-1 cell viability assay, HUVEC
[1] = WST-1 cell viability assay, HUVEC; details: human, HUVEC cells
[2] = WST-1 cell viability assay, AoSMC; details: human, AoSMC cells
Description: HUVEC and AoSMC viability were tested using the WST-1 cell viability assay (Takara Bio Europe, Saint-Germain-en-Laye, France). […] Briefly, HUVEC and AoSMC were seeded at densities of 7500 and 5000 cells per well on 96-well plates. The cells were cultivated for up to 24 h to achieve 70% confluency, and subsequently treated with tested compounds diluted in medium (1 + 9; v = 100 μL) or pure medium (control). The plates were incubated at 37 °C (5% CO2) for the next 24 h. Then, the cells were rinsed with 100 μL culture medium, and WST-1 reagent diluted in medium (100 μL) was added; the plates were then incubated again (37 °C, 5% CO2) for another 90 min. The absorbance was measured at 450 nm (iMARK, Bio-Rad, Hercules, CA, USA). The experiments were performed in multiplicate (n = 8) and the results were presented as mean ± SD. The cell viability was expressed as a percentage of the control samples, which constituted 100% viability. […] The variability coefficient of the method was estimated (CV(HUVEC) = 8.94%, n = 8; CV(AoSMC) = 5.84%, n = 10).

[3] = tested on: clot formation and fibrinolysis in human citrate plasma; assay: Clot formation and fibrinolysis test (CL-test); type: biochemical
Description: The effects of the […] on overall hemostasis potential by means of clot formation and fibrinolysis test (CL-test) were further tested based on the continuous measurement of the changes in optical transmittance over time, as described by Kostka et al. and Sikora et al.. These experiments were conducted using 470 µL of three-fold diluted human citrate plasma, 10 µL of the tested compounds, and 10 µL t-PA (final concentration in a sample 220 ng/mL). The clot formation was triggered by thrombin (10 µL, final concentration 0.5 IU/mL). The clot formation and lysis curves were determined at a wavelength of 405 nm with a spectrophotometer (Cecil CE 2021; London, UK) with circulating thermostated water (37 °C) and a Model 300 Electronic Stirrer (Rank Brothers Ltd., Cambridge, UK). The experiments were conducted in multiplicate (n = 5–7), and the results are presented as mean ± SD.
The received graphs were analyzed using dedicated software to determine the kinetic parameters of clot formation, stabilization, and fibrinolysis. The following parameters of clot formation were determined: Tt—thrombin time (s), Fmax—maximum clotting (%T), Tf—plasma clotting time (s), Fvo—initial plasma clotting velocity (%T/min), Sr—area under the clot formation curve (%Txmin). The parameters of the clot stabilization phase comprised Tc—clot stabilization time (s), Sc—area under the curve of stable clot formation (%Txmin). The parameters of fibrinolysis comprised Lmax—maximum lysis (%T), Tl—fibrinolysis time (s), Lvo—initial clot fibrinolysis velocity (%T/min), Sf—area under the fibrinolysis curve (%Txmin). Additionally, the overall potential of clot formation and fibrinolysis (CLAUC, (%Txmin)) and total time of the process of clot formation and fibrinolysis (T, (s)) were also estimated.

**Q.** With `CCCCS(=O)(=O)NC(N)=NC(=N)N(C)C` [Compound 1] as the compound, how does the “Decrease of HUVECs viability (growth inhibition)” value (HUVEC cells; 0.3 mM, vs control) read?
**A.** approximately 28.96%

**Q.** What about the IC50 (HUVEC cells; Homo sapiens, HUVEC, 24 h, read-out: Viability-IC50, HUVEC cells) of the same compound?
**A.** 3.64 ± 0.26 mM

**Q.** What about the viability at 24 h, 0.06 mM [1] of the same compound?
**A.** 76.3 ± 9.19%

**Q.** And the viability at 24 h, 0.3 mM [1]?
**A.** 71 ± 8.45%

**Q.** And the viability at 24 h, 3 mM [2]?
**A.** > 59%

**Q.** And the “Fmax—maximum clotting” value ([3]; 0.06 mM)?
**A.** 73.71 ± 5.89 %T

**Q.** And the “Fvo—initial plasma clotting velocity” value ([3]; 0.06 mM)?
**A.** 230.57 ± 34.38 %T/min

**Q.** What about the “Lmax—maximum lysis” value ([3]; 0.06 mM) of the same compound?
**A.** 70.23 ± 10.26 %T

**Q.** What about the “Lvo—initial clot fibrinolysis velocity” value ([3]; 0.06 mM) of the same compound?
**A.** 21.40 ± 6.16 %T/min

**Q.** What about the “Sc—area under the curve of a stable clot formation” value (“Sc—area under the curve” below) ([3]; 0.06 mM) of the same compound?
**A.** 389.25 ± 160.80 %T x min

**Q.** What about the “Sf—area under the clot formation curve” value ([3]; 0.06 mM) of the same compound?
**A.** 50.97 ± 7.65 %T x min

**Q.** What about the “Sl (area under the fibrinolysis curve)” value ([3]; 0.06 mM) of the same compound?
**A.** 193.67 ± 107.75 %T x min

**Q.** What about the “S—overall potential of clot formation and fibrinolysis (CLAUC)” value (“S—overall potential” for short) ([3]; 0.06 mM) of the same compound?
**A.** 633.89 ± 269.28 %T x min

**Q.** What about the “Tc—clot stabilization time” value ([3]; 0.06 mM) of the same compound?
**A.** 324.86 ± 130.79 s

**Q.** What about the “Tf—plasma clotting time” value ([3]; 0.06 mM) of the same compound?
**A.** 58.61 ± 9.61 s

**Q.** What about the “Tl—fibrinolysis time” value ([3]; 0.06 mM) of the same compound?
**A.** 253.57 ± 104.13 s

**Q.** And the “Tt—thrombin time” value ([3]; 0.06 mM)?
**A.** 18.97 ± 3.08 s

**Q.** And the “T—total time of the process of clot formation and fibrinolysis” value (from here on “T—total time”) ([3]; 0.06 mM)?
**A.** 656.01 ± 236.60 s

**Q.** And the “Fmax—maximum clotting” value ([3]; 0.3 mM)?
**A.** 71.97 ± 6.78 %T

**Q.** What about the “Fvo—initial plasma clotting velocity” value ([3]; 0.3 mM) of the same compound?
**A.** 227.86 ± 37.81 %T/min

**Q.** And the “Lmax—maximum lysis” value ([3]; 0.3 mM)?
**A.** 69.09 ± 10.62 %T

**Q.** And the “Lvo—initial clot fibrinolysis velocity” value ([3]; 0.3 mM)?
**A.** 18.53 ± 7.15 %T/min

**Q.** What about the “Sc—area under the curve” value ([3]; 0.3 mM) of the same compound?
**A.** 407.13 ± 154.90 %T x min

**Q.** And the “Sf—area under the clot formation curve” value ([3]; 0.3 mM)?
**A.** 52.45 ± 10.08 %T x min

**Q.** And the “Sl (area under the fibrinolysis curve)” value ([3]; 0.3 mM)?
**A.** 186.37 ± 104.97 %T x min

**Q.** And the “S—overall potential” value ([3]; 0.3 mM)?
**A.** 645.95 ± 264.51 %T x min

**Q.** What about the “Tc—clot stabilization time” value ([3]; 0.3 mM) of the same compound?
**A.** 347.71 ± 124.84 s

**Q.** And the “Tf—plasma clotting time” value ([3]; 0.3 mM)?
**A.** 61.36 ± 11.85 s

**Q.** And the “Tl—fibrinolysis time” value ([3]; 0.3 mM)?
**A.** 260.57 ± 95.60 s

**Q.** And the “Tt—thrombin time” value ([3]; 0.3 mM)?
**A.** 16.81 ± 3.05 s

**Q.** And the “T—total time” value ([3]; 0.3 mM)?
**A.** 686.46 ± 226.50 s

**Q.** And the “Fmax—maximum clotting” value ([3]; 0.6 mM)?
**A.** 70.77 ± 5.62 %T

**Q.** What about the “Fvo—initial plasma clotting velocity” value ([3]; 0.6 mM) of the same compound?
**A.** 217.71 ± 37.42 %T/min

**Q.** What about the “Lmax—maximum lysis” value ([3]; 0.6 mM) of the same compound?
**A.** 69.47 ± 6.67 %T

**Q.** What about the “Lvo—initial clot fibrinolysis velocity” value ([3]; 0.6 mM) of the same compound?
**A.** 18.64 ± 4.38 %T/min

**Q.** And the “Sc—area under the curve” value ([3]; 0.6 mM)?
**A.** 388.20 ± 131.19 %T x min

**Q.** And the “Sf—area under the clot formation curve” value ([3]; 0.6 mM)?
**A.** 53.53 ± 5.26 %T x min

**Q.** And the “Sl (area under the fibrinolysis curve)” value ([3]; 0.6 mM)?
**A.** 178.97 ± 84.17 %T x min

**Q.** And the “S—overall potential” value ([3]; 0.6 mM)?
**A.** 620.70 ± 216.54 %T x min

**Q.** What about the “Tc—clot stabilization time” value ([3]; 0.6 mM) of the same compound?
**A.** 338.00 ± 114.76 s

**Q.** And the “Tf—plasma clotting time” value ([3]; 0.6 mM)?
**A.** 63.63 ± 6.31 s

**Q.** What about the “Tl—fibrinolysis time” value ([3]; 0.6 mM) of the same compound?
**A.** 267.71 ± 99.31 s

**Q.** What about the “Tt—thrombin time” value ([3]; 0.6 mM) of the same compound?
**A.** 16.75 ± 4.87 s

**Q.** And the “T—total time” value ([3]; 0.6 mM)?
**A.** 686.09 ± 216.29 s

**Q.** And the “Fmax—maximum clotting” value ([3]; 1.5 mM)?
**A.** 70.21 ± 3.38 %T

**Q.** What about the “Fvo—initial plasma clotting velocity” value ([3]; 1.5 mM) of the same compound?
**A.** 193.57 ± 47.31 %T/min

**Q.** What about the “Lmax—maximum lysis” value ([3]; 1.5 mM) of the same compound?
**A.** 66.90 ± 8.86 %T

**Q.** What about the “Lvo—initial clot fibrinolysis velocity” value ([3]; 1.5 mM) of the same compound?
**A.** 20.23 ± 6.46 %T/min

**Q.** And the “Sc—area under the curve” value ([3]; 1.5 mM)?
**A.** 389.89 ± 172.66 %T x min

**Q.** What about the “Sf—area under the clot formation curve” value ([3]; 1.5 mM) of the same compound?
**A.** 52.36 ± 6.58 %T x min

**Q.** And the “Sl (area under the fibrinolysis curve)” value ([3]; 1.5 mM)?
**A.** 159.20 ± 87.92 %T x min

**Q.** And the “S—overall potential” value ([3]; 1.5 mM)?
**A.** 602.52 ± 263.77 %T x min

**Q.** And the “Tc—clot stabilization time” value ([3]; 1.5 mM)?
**A.** 344.29 ± 149.70 s

**Q.** What about the “Tf—plasma clotting time” value ([3]; 1.5 mM) of the same compound?
**A.** 64.21 ± 9.03 s

**Q.** What about the “Tl—fibrinolysis time” value ([3]; 1.5 mM) of the same compound?
**A.** 236.57 ± 80.20 s

**Q.** What about the “Tt—thrombin time” value ([3]; 1.5 mM) of the same compound?
**A.** 21.60 ± 6.05 s

**Q.** What about the “T—total time” value ([3]; 1.5 mM) of the same compound?
**A.** 666.67 ± 234.05 s
